Experimental data from ChEMBL document CHEMBL4308859, “Discovery of Novel Central Nervous System Penetrant Metabotropic Glutamate Receptor Subtype 2 (mGlu2) Negative Allosteric Modulators (NAMs) Based on Functionalized Pyrazolo[1,5- a]pyrimidine-5-carboxamide and Thieno[3,2- b]pyridine-5-carboxamide Cores” (J Med Chem, 2018).

What was measured:
[1] = target: Metabotropic glutamate receptor 2 (Rattus norvegicus, UniProt P31421); assay: (§1) Negative allosteric modulation of rat mGlu2R expressed in HEK293 cells co-expressing Galpha15 assessed as decrease in glutamate-induced calcium mobilization preincubated for 2.3 mins followed by glutamate addition and measured after 1.7 mins by Fluo-4-AM dye based fluorescence assay; type: functional, cell-based
Metabotropic glutamate receptor 2, sequence (P31421 whole entry): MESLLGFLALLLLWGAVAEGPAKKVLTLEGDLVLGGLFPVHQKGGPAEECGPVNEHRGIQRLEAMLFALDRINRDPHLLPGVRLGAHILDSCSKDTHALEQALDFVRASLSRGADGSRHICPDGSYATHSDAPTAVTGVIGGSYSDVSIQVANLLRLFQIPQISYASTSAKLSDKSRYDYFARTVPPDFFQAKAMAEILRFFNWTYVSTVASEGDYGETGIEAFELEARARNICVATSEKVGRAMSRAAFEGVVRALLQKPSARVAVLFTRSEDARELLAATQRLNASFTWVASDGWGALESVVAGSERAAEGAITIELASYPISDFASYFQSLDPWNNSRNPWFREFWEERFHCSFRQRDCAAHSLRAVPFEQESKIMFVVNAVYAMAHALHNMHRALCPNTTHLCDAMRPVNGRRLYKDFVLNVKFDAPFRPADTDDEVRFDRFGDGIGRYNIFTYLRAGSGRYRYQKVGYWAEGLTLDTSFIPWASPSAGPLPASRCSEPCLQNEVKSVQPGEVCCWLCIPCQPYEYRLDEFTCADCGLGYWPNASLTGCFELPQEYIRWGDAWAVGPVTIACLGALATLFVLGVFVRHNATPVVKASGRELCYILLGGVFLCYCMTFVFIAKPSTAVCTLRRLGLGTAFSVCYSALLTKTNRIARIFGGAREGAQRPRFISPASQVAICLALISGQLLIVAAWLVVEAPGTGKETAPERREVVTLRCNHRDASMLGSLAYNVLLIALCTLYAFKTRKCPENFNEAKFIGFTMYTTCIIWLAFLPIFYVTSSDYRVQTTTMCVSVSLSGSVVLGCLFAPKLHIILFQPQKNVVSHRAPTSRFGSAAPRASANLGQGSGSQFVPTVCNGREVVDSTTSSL

[2] = target: Metabotropic glutamate receptor 2 (Rattus norvegicus) (UniProt P31421); assay: as §1, with “mobilization at 30 uM” for “mobilization”, “assay relative to control” for “assay”; type: functional, cell-based
Metabotropic glutamate receptor 2 (Rattus norvegicus), sequence (P31421 19-872 limits assumed): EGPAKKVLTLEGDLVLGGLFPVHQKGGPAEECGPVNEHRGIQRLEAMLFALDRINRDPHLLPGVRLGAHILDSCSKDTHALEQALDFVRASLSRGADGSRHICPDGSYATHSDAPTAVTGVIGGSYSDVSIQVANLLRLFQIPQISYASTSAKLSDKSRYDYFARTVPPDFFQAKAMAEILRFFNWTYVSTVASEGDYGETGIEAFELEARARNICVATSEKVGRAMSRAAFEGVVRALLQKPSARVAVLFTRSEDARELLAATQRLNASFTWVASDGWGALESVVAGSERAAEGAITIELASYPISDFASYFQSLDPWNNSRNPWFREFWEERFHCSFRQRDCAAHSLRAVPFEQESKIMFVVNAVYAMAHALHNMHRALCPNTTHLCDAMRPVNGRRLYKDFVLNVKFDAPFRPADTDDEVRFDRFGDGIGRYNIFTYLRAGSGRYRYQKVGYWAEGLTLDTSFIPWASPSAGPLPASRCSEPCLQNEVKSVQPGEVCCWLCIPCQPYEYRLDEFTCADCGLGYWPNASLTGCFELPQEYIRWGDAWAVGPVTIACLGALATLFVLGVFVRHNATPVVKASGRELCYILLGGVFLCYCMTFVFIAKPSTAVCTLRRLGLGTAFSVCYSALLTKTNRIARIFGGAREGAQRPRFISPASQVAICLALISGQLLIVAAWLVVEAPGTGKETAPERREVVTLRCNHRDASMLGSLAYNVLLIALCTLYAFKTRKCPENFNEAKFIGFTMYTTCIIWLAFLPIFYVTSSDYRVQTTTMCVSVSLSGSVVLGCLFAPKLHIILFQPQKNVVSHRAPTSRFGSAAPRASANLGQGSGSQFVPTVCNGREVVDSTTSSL

[3] = Fraction unbound in human plasma after 4 hrs by equilibrium dialysis method; type: ADME, cell-free
[4] = Unbound brain to plasma ratio in Sprague-Dawley rat at 0.2 mg/kg, iv administered as cassette dose by LC-MS/MS analysis; type: ADME, organism-based; settings: brain and plasma, read-out: K(p,uu,brain)
[5] = Fraction unbound in rat brain; type: ADME, tissue-based
[6] = Brain to plasma partition coefficient, Kp of the compound in Sprague-Dawley rat at 0.2 mg/kg, iv administered as cassette dose by LC-MS/MS analysis; type: ADME, organism-based; settings: brain and plasma
[7] = Fraction unbound in rat plasma after 4 hrs by equilibrium dialysis method; type: ADME, cell-free

Row | SMILES | IC50 [1] [nM] | Emax [2] [%] | other results
1 | NC(=O)c1cc(-c2ccc(F)cc2)n2nc(CCc3cccnc3)cc2n1 | 1740 | 2.9 | 
2 | COc1ccc(-c2cc(C(N)=O)nc3cc(COc4ccnc(C(F)(F)F)c4)nn23)c(F)c1 | 148 | 2.1 | fraction unbound at 4 h [3]: 0.03 to 0.12; Kp uu [4]: 0.4 to 0.6; fraction unbound [5]: 0.003 to 0.009; Kp [6]: 2.5 to 2.7; fraction unbound at 4 h [7]: 0.03 to 0.12
3 | NC(=O)c1cc(-c2ccc(F)cc2)c2sc(COc3ccnc(C(F)(F)F)c3)cc2n1 | 1740 | 2.3 | 
4 | NC(=O)c1cc(-c2ccc(F)cc2)n2nc(CCc3ccncc3)cc2n1 | 1050 | 2.6 | 
5 | NC(=O)c1cc(-c2ccc(F)cc2)c2sc(COc3ccc(F)nc3)cc2n1 | 891 | 13.2 | Kp uu [4]: < 0.4; Kp [6]: > 2
6 | NC(=O)c1cc(-c2ccc(F)cc2)c2sc(CN3CCSCC3)cc2n1 | 3630 | 2.4 | 
7 | COc1ccc(-c2cc(C(N)=O)nc3cc(CN4CCOCC4)sc23)c(F)c1 | 1410 | 2.3 | 
8 | Cn1ccc(OCc2cc3nc(C(N)=O)cc(-c4ccc(F)cc4)c3s2)n1 | 1510 | 1.9 | 
9 | COc1ccc(-c2cc(C(N)=O)nc3cc(CN4CCOCC4)sc23)cc1 | 2510 | 2.6 | 
10 | NC(=O)c1cc(-c2ccc(F)cc2)c2sc(CN3CCOCC3)cc2n1 | 3890 | 2.9 | 
11 | Cc1cc(OCc2cc3nc(C(N)=O)cc(-c4ccc(F)cc4)n3n2)ccn1 | > 10000 |  | 
12 | COc1ccc(OCc2cc3nc(C(N)=O)cc(-c4ccc(F)cc4)c3s2)cn1 | 2000 | 16.8 | 
13 | NC(=O)c1cc(-c2ccc(F)cc2)c2sc(CN3CCCCC3)cc2n1 | 1740 | 2.2 | 
14 | COc1ccc(-c2cc(C(N)=O)nc3cc(COc4cnc(C)nc4)sc23)c(F)c1 | 427 | 2.7 | 
15 | NC(=O)c1cc(-c2ccc(F)cc2)n2nc(COc3ccc(C(F)(F)F)nc3)cc2n1 | > 10000 |  | 
16 | Cc1ccc(OCc2cc3nc(C(N)=O)cc(-c4ccc(F)cc4)c3s2)c(C)n1 | 741 | 3.3 | Kp uu [4]: < 0.4; Kp [6]: > 2
17 | NC(=O)c1cc(-c2ccc(F)cc2)c2sc(CN3CCC(F)(F)CC3)cc2n1 | 1050 | 2.2 | 

Continued, in another order:

Row | IC50 [1] [nM] | Emax [2] [%] | SMILES | other results
18 | 676 | 26.2 | NC(=O)c1cc(-c2ccc(F)cc2)c2sc(COc3cncnc3)cc2n1 | 
19 | 224 | 19.7 | NC(=O)c1cc(-c2ccc(F)cc2)n2nc(COc3ccnc(Br)c3)cc2n1 | fraction unbound at 4 h [3]: 0.03 to 0.12; Kp uu [4]: 0.4 to 0.6; fraction unbound [5]: 0.003 to 0.009; Kp [6]: 2.5 to 2.7; fraction unbound at 4 h [7]: 0.03 to 0.12
20 | > 10000 |  | NC(=O)c1cc(-c2ccc(F)cc2)c2sc(COc3ccc(F)cc3)cc2n1 | 
21 | > 10000 |  | NC(=O)c1cc(-c2ccc(F)cc2)c2sc(COc3ccc(C(F)(F)F)nc3)cc2n1 | 
22 | 2570 | 7.2 | COc1ccc(-c2cc(C(N)=O)nc3cc(COc4ccc(F)nc4)sc23)cc1 | 
23 | 447 |  | [2H]C([2H])([2H])Oc1ccc(-c2cc(C(N)=O)nc3cc(COc4cnc(C)nc4)sc23)cc1 | 
24 | 589 | 6.9 | Cc1ncc(OCc2cc3nc(C(N)=O)cc(-c4ccc(F)cc4)c3s2)cn1 | 
25 | 871 | 29.3 | NC(=O)c1cc(-c2ccc(F)cc2)c2sc(COc3ccc(Cl)nc3)cc2n1 | Kp uu [4]: < 0.4; Kp [6]: > 2
26 | > 10000 |  | NC(=O)c1cc(-c2ccc(F)cc2)c2sc(CN3CCC3)cc2n1 | 
27 | 1410 | 2.4 | CN(Cc1cc2nc(C(N)=O)cc(-c3ccc(F)cc3)c2s1)C1COC1 | 
28 | 6610 | 4.1 | NC(=O)c1cc(-c2ccc(F)cc2)c2sc(CN3CCCC3)cc2n1 | 
29 | 759 | 3.2 | Cc1ncccc1OCc1cc2nc(C(N)=O)cc(-c3ccc(F)cc3)c2s1 | Kp uu [4]: < 0.4; Kp [6]: > 2
